Assay results: patent US20050175688A1 (priority 2004, published 2005)

Legend:
[1] = Solubility in water; assay type: physicochemical
[2] = system: chronic pelvic pain/endometriosis; test: Potaba protocol study: oral Potaba in women with chronic pelvic pain/endometriosis; assay type: in vivo
Method: The total number of women under clinical examination was 212.
All of those who volunteered for the therapy protocol met the criteria of 10 points or more on the self-test, that threshold defining a subject who was at risk for endometriosis.
A pelvic pain assessment which was originated by the International Pelvic Pain Society© 1999 (IPPS) was also conducted. IPPS evaluated the volunteer subjects for the following information: pain, menses, bladder, bowel habits, gastro-intestinal/eating habits, health habits, coping mechanisms, a short form McGill questionnaire (psychological; level of depression assay), daily activities, personal history, surgical history, sexual history and physical history.
In addition to a careful review of the pre-test examinations of the prospective subjects, exclusion criteria were also established as a means of reducing unrelated influences into the test results.
Only one physician conducted the physical evaluation of each of the participants to ensure consistency throughout the study. In addition to repeated laboratory and thorough physical examinations, the examining physician personally discussed and recorded responses to questions about the presence or absence of side-effects and improvements in symptoms, if any. […] Although the subjects individual responses to questions regarding symptoms and particularly levels of pain experience throughout the test period inherently can include a subjective element, the questions were repetitiously and precisely posed to the subjects so as to prompt a consistent response minimally effected by the questioner's choice of words, tone, delivery, etc. The test subjects reported pelvic pain experience as a number selected between the levels of 1 to 10, with 1 being no pain experienced and 10 being the most severe level of pain.

[3] = 12 grams/day po, out of 25 participants

## Nc1ccc(C(=O)O)cc1 [Potaba, aminobenzoate potassium]
[1]
  solubility in water: highly soluble in water
[2]; [3]
  Discontinued Potaba protocol (reason): nausea, No. of Study Participants: 3
  Discontinued Potaba protocol (reason): rash, No. of Study Participants: 2
[2]; oral administration
  incidence of drug interactions: low incidence of drug interactions
[2]; oral administration, potassium
  toxicity / safety of oral administration (result in words): non-toxic and safe
